A short description of assay [1]: Weight loss, food intake and indirect calorimetry in lean female Balb/C mice, 60 mg/kg. In kind it is in vivo. The conditions noted are these: for Metabolic Mechanism (indirect calorimetry): RER / Metabolic Mechanism (indirect calorimetry): VO2: compared to pair-fed animals; for % Maximum Reduction in Food Intake: day 1; for % Maximum Reduction in Food Intake / % Max. Wt Loss: 60 mg/kg. The procedure: Compounds 4 and 5 were administered to pair-fed mice, and various biological properties were tested for. The results are summarized below:
(§1) In contrast, it stimulated FAO by 150% of control at 8.4 μg/ml (28 μM) and CPT-1 activity by 150% of control at 20 μg/ml (˜60 μM). In lean female Balb/C mice, a single ip dose of 60 mg/kg caused nearly 8% weight loss within 24 hours along with a 68% reduction in food intake. […] Compound 5, with a different chemical structure, has similar biological characteristics to Compound 4.

The next assay has as its target human FAS (Homo sapiens, UniProt P49327). The assay can be described thus: FAS inhibition assay (standard and slow-binding). Format: biochemical. The procedure: as §1
Assay [2] deals with MCF7 human breast cancer cells. The assay can be described thus: Fatty acid oxidation: oxidation of [14C]palmitate to acid soluble products. In kind it is cell-based. From the text:
By “FAO-stimulator,” we mean a compound which stimulates FAO as measured by oxidation of [^14C]palmitate to acid soluble products in MCF7 human breast cancer cells as described by Watkins, et al., “Peroxisomal fatty acid beta-oxidation in HepG2 cells,” Arch Biochem Biophys, 289: 329-336 (1991). A compound whose Vmax is at least 125% of vehicle control is defined as an FAO stimulator.

The conditions of assay [3]: systemic FAO inhibition, rodents; cited from earlier work.
For assay [4] the following is noted: portal vein infusion, 18 h chow deprived rats; cited from earlier work.
Assay [5] deals with FAO in the ventrolateral hypothalamus (VLH). The conditions noted are these: cited from earlier work.
Assay [6] can be described thus: Oral 100 mg/kg in diet-induced obese mice vs pair-fed and control animals (FIG. 3). Format: in vivo. The protocol: In this experiment, compound 4 was administered orally at 100 mg/kg, in 35 μl DMSO to diet-induced obese mice, 5 animals per group.
The next assay concerns CPT-1. The assay can be described thus: CPT-1 activity in digitonin permeabilized cells. Format: cell-based.
Assay [7] relates to carnitine palmitoyltransferase-1 (CPT-1). The conditions noted are these: Thupari et al.; cited from earlier work.
For assay [8] the following is noted: C75 administration, separate studies; cited from earlier work.
Setting [9] is: slow binder requires preincubation at 37° C. prior to FAS assay, read-out: FAS Inhibition IC50.
Setting [10] is: concentration that yields a 50% increase in fatty acid oxidation over controls, linear regression analysis, read-out: FAO SC150.
The mark [11] stands for this setting: single ip dose of 60 mg/kg, within 24 hours, lean female Balb/C mice.

Read-outs that look alike come from different tables or passages of the source.

Consider eight compounds from US20100168218A1 (priority 2005, published 2010).

Sequence of human FAS (P49327 whole entry): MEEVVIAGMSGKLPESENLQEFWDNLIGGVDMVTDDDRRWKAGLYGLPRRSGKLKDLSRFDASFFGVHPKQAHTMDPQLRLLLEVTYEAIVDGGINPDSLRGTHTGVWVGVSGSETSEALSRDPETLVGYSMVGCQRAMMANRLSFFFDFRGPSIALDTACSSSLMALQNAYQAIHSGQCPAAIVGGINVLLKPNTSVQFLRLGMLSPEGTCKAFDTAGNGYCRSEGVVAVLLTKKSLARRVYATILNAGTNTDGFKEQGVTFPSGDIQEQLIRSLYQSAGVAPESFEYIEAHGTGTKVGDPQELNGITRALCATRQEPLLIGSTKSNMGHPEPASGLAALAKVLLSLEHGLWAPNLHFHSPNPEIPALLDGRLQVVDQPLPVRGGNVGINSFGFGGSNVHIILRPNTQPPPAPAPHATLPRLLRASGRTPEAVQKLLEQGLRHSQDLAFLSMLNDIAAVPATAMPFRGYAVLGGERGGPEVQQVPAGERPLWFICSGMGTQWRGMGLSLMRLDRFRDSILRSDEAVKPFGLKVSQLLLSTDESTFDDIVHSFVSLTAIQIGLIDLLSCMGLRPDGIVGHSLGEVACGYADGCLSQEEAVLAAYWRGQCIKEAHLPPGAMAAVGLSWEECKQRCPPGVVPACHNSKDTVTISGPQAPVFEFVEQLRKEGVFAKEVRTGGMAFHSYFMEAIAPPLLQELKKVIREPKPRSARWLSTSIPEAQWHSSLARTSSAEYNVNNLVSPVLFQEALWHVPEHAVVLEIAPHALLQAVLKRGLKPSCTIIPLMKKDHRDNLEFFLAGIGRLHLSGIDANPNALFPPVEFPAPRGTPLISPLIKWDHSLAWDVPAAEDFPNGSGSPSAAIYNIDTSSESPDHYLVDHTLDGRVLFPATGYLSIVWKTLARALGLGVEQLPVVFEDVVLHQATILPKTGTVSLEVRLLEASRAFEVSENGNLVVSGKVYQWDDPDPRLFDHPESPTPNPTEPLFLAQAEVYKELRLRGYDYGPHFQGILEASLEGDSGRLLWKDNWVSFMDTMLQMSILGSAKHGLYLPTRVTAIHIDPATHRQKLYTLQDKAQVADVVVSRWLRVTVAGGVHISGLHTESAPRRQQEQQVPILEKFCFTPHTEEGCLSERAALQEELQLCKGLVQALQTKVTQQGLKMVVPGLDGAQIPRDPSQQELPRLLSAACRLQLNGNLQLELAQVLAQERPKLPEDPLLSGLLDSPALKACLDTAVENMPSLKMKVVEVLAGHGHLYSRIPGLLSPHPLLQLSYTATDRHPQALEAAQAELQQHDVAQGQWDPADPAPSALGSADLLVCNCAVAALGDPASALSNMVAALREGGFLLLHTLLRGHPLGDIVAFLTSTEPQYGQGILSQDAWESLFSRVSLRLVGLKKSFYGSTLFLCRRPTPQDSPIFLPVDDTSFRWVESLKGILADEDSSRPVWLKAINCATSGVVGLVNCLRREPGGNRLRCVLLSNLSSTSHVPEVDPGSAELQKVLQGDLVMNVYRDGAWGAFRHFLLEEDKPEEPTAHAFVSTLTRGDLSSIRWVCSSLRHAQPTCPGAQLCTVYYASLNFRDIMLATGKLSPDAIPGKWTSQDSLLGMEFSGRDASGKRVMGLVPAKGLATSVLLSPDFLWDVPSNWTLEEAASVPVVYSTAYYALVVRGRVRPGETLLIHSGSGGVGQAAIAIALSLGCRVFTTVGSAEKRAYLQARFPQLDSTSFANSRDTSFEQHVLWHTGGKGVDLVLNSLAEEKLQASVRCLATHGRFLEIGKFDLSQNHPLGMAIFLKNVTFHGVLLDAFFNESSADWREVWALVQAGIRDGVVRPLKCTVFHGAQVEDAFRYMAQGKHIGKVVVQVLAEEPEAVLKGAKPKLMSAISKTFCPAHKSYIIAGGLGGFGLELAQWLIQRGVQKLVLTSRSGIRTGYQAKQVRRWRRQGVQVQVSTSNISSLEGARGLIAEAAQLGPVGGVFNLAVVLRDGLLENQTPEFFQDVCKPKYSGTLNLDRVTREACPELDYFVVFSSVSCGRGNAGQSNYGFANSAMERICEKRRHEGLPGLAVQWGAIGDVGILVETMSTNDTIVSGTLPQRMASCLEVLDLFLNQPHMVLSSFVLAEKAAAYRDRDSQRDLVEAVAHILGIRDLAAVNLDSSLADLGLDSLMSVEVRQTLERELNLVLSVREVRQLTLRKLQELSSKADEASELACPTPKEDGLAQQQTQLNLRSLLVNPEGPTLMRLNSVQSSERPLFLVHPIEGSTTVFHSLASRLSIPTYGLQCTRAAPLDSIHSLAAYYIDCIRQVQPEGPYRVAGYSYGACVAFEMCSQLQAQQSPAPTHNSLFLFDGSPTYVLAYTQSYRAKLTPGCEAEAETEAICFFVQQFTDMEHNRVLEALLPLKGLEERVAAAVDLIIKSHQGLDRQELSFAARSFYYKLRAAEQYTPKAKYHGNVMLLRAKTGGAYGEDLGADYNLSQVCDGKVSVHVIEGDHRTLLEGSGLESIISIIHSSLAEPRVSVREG

Consider `CCCCC1OC(=O)C(=O)C1C(=O)OCC` (stereo not drawn) [Compound 5], for which, in assay [1], the “Metabolic Mechanism (indirect calorimetry): RER” value (shortened to “Metabolic Mechanism … RER”) is reported as “↓RER p = 0.01” and the “Metabolic Mechanism (indirect calorimetry): VO2” value (shortened to “Metabolic Mechanism … VO2”) is “↑VO2”. Further, in assay [1] (lean female Balb/C mice), the “% Maximum Reduction in Food Intake” value is given as 50% (day 1) and the “% Max. Wt Loss” value is reported as 12.3%. Moreover, the IC50 at human FAS (setting [9]) was more than 110 µM. Moreover, the EC50 in [2] (setting [10]) was determined as 9 µg/mL.

On to `CCCCCCCCCCCCCCC1(C(=O)OC)CO1` (stereo not drawn) [methyl palmoxirate], for which the feeding entry in assay [3] is recorded as “Increased feeding”.

Regarding `CCCCCCCC(=O)O` [caprylic acid], in [4], the “FAO as measured by plasma β-hydroxybutyrate” value is “increased FAO” and the “reduction of the size of the first dark phase meal” value is 38%.

As for `C[N+](C)(C)C[C@H](O)CC(=O)[O-]` [L-carnitine], in assay [5] (infusion into the VLH of rats), the “food intake or animal weight” value was “did not affect food intake or animal weight” and the “increase of FAO in the VLH over control levels” value is given as 28%.

Take `C=CCC1(CC=C)C(=O)S[C@](C)(CCCCCCCC)C1=O` [Compound 4]: in assay [6] (oral 100 mg/kg), the “RER vs pair-fed group (FIG. 3D)” value was “significantly reduced compared to the pair-fed group on days 1, 3, and 4”; the “VO2 by indirect calorimetry vs pair-fed animals (FIG. 3C)” value is reported as “maintained their VO2 compared to pair-fed animals on the first two days following treatment with a significant increase by day 3”; the “food intake vs control animals (FIG. 3B)” value is given as “ate significantly less food than control animals on the two days following treatment”. The “weight loss vs pair-fed animals (FIG. 3A)” value in assay [6] (oral 100 mg/kg in DMSO) is “lost more weight and maintained the weight loss longer than the pair-fed animals”. Also, the “CPT-1 Activity %” value in the assay with CPT-1 (% of control at concentration for maximal CPT-1 activity, digitonin permeabilized cells) amounted to 150%. The “concentration giving CPT-1 activity 150% of control” value in the assay with CPT-1 (molar equivalent of 20 μg/ml) was approximately 60 µM. The “concentration for maximal CPT-1 activity” value with CPT-1 (number in parenthesis, digitonin permeabilized cells) amounted to 20 µg/mL. Moreover, in assay [1], the “Metabolic Mechanism … RER” value is on record as “↓RER p = 0.0057” and the “Metabolic Mechanism … VO2” value is “↑VO2”. Further, in [1] (listed as compound 4), the “Metabolic Mechanism … RER” value was “reducing RER” and the “Metabolic Mechanism … VO2” value is “increased VO2 compared to pair-fed animals”. For the same compound, in assay [1] (lean female Balb/C mice), the “% Maximum Reduction in Food Intake” value is reported as 68% (day 1) and the “% Max. Wt Loss” value amounted to 7.9%. In assay [1] (setting [11]), the “reduction in food intake” value worked out at 68% and the weight loss is on record as approximately 8%. Moreover, at human FAS (setting [9]), the IC50 is more than 77.5 µM. Also, the IC50 on human FAS (standard and slow-binding assays, read-out: human FAS inhibition: no inhibition at concentrations up to) is more than 310 µM. Moreover, the EC50 in [2] (setting [10]) worked out at 8.4 µg/mL. Moreover, the EC50 in assay [2] (molar equivalent of 8.4 μg/ml, read-out: concentration stimulating FAO by 150% of control) is 28 µM.

On to `C=C1C(=O)O[C@@H](CCCCCCCC)[C@@H]1C(=O)O` (relative stereo) [Compound C75, trans-tetrahydro-3-methylene-2-oxo-5-n-octyl-4-furancarboxylic], for which the CPT-1 activity result in [7] was “stimulates carnitine palmitoyltransferase-1 (CPT-1) activity”. For the same compound, in assay [8], the energy expenditure entry is “increases energy expenditure” and the food intake result is given as “reducing food intake”.

Consider `O=C(O)CS` [mercaptoacetate], for which the feeding entry in assay [3] is listed as “Increased feeding”.

On to `C=CCCC(=O)O` [Compound 4-PA, 4-pentanoic acid], for which the “weight or carcass composition” value in assay [5] (after 2 weeks of central FAO inhibition, rats) is listed as “no significant changes in weight or carcass composition”. Further, the “reduction of FAO in the VLH” value in assay [5] (infusion for 14 days into the VLH of rats) is 37%.
